Consider 21 molecules from patent publication US20250281424A1 (New York Blood Center, Inc, priority 2020, published 2025).

The structures appear in SMILES notation.

In the experiment the target is T1, human PF4 (Homo sapiens, UniProt P02776).
T1 construct: PF4 is a 70 amino acid, lysine-rich 7.8 kDa platelet-specific protein; made in house; host or cells: Escherichia coli BL21DE3 pLysS (pT7-7) and/or Drosophila S2 cells
T1 sequence (P02776 32-101): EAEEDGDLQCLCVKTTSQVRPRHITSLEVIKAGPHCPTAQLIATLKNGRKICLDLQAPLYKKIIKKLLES
Put plainly: Inhibition of PF4 tetramer formation (BS3 cross-linking, SDS-PAGE). Format: biochemical. Particulars: for inhibition at 1 µM: 1 μM inhibitor; for inhibition at 1 µM / inhibition at 3 µM / inhibition at 5 µM / inhibition at 10 µM: read-out: % inhibition of PF4 tetramer formation at single concentration of inhibitor; for inhibition at 3 µM: 3 μM inhibitor (column A); for IC50: read-out: IC50 of PF4 tetramer formation inhibition; for inhibition at 5 µM: 5 μM inhibitor; for inhibition at 10 µM: 10 μM inhibitor (column A). In a few lines:
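Recombinant human wild-type PF4 (E. coli-expressed, heparin-purified), 10 μg/ml in PBS, incubated with compound 15 min at 37° C or 60 min at room temperature, then cross-linked with 0.2 mM BS3 for 30 min at room temperature. Reducing 12% SDS-PAGE; bands quantified as % tetramer, trimer, dimer, monomer versus compound-free control.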

Regarding `O=C1c2ccc(S(=O)(=O)c3ccc4c(c3)C(=O)C(C(=O)C3CCC3)C4=O)cc2C(=O)C1C(=O)C1CCC1` (centres unmarked) [Example 296, 2-cyclobutanecarbonyl-5-[(2-cyclobutanecarbonyl-1,3-dioxo-2,3-dihydro-1H-inden-5-yl)sulfonyl]-2,3-dihydro-1H-indene-1,3-dione], the inhibition at 1 µM was determined as 22% and the inhibition at 3 µM is 36%.

Usually IC50 stands for the concentration at which inhibition is half-maximal. On to `CS(=O)(=O)N1CCC(NC(=O)C2C(=O)c3ccc(C(=O)c4ccc5c(c4)C(=O)C(C(=O)NC4CCN(S(C)(=O)=O)CC4)C5=O)cc3C2=O)CC1` (centres unmarked) [Example 365, N-(1-methanesulfonylpiperidin-4-yl)-5-{2-[(1-methanesulfonylpiperidin-4-yl)carbamoyl]-1,3-dioxo-2,3-dihydro-1H-indene-5-carbonyl}-1,3-dioxo-2,3-dihydro-1H-indene-2-carboxamide], for which the inhibition at 1 µM amounted to 27%, the inhibition at 3 µM was found to be 63% and the 50% inhibitory concentration (IC50) was found to be 3.39 µM.

Consider `N[C@H](C(=O)C1C(=O)c2ccc(C(=O)c3ccc4c(c3)C(=O)C(C(=O)[C@@H](N)C3CC3)C4=O)cc2C1=O)C1CC1` (stereo partly drawn) [Example 118, 2-[(2S)-2-amino-2-cyclopropylacetyl]-5-{2-[(2S)-2-amino-2-cyclopropylacetyl]-1,3-dioxo-2,3-dihydro-1H-indene-5-carbonyl}-2,3-dihydro-1H-indene-1,3-dione], for which the inhibition at 5 µM was found to be 75%, the inhibition at 10 µM came to 94% and the IC50 came out at 3.4 µM.

Regarding `CC[C@H](C)[C@H](NC(=O)C1C(=O)c2ccc(Oc3ccc4c(c3)C(=O)C(C(=O)N[C@H](C(=O)OC)[C@@H](C)CC)C4=O)cc2C1=O)C(=O)OC` (stereo partly drawn) [Example 331, methyl (2S,3S)-2-({5-[(2-{[(2S,3S)-1-methoxy-3-methyl-1-oxopentan-2-yl]carbamoyl}-1,3-dioxo-2,3-dihydro-1H-inden-5-yl)oxy]-1,3-dioxo-2,3-dihydro-1H-inden-2-yl}formamido)-3-methylpentanoate], the inhibition at 1 µM came to 37% and the inhibition at 3 µM amounted to 66%.

Consider `COCCNC(=O)C1C(=O)c2ccc(C(=O)c3ccc4c(c3)C(=O)C(C(=O)NCCOC)C4=O)cc2C1=O` (centres unmarked) [Example 74, 5,5′-carbonylbis(n-(2-methoxyethyl)-1,3-dioxo-2,3-dihydro-1h-indene-2-carboxamide)], for which the inhibition at 5 µM amounted to 19% and the inhibition at 10 µM came to 46%.

As to `CO[C@@H](C)C(=O)C1C(=O)c2ccc(S(=O)(=O)c3ccc4c(c3)C(=O)C(C(=O)[C@@H](C)OC)C4=O)cc2C1=O` (stereo partly drawn) [Example 237, 2-[(2R)-2-methoxypropanoyl]-5-({2-[(2S)-2-methoxypropanoyl]-1,3-dioxo-2,3-dihydro-1H-inden-5-yl}sulfonyl)-2,3-dihydro-1H-indene-1,3-dione], the inhibition at 1 µM was 30% and the inhibition at 3 µM was 37%.

In the case of `COCC(=O)C1C(=O)c2ccc(Oc3ccc4c(c3)C(=O)C(C(=O)COC)C4=O)cc2C1=O` (centres unmarked) [Example 249, 2-(2-methoxyacetyl)-5-{[2-(2-methoxyacetyl)-1,3-dioxo-2,3-dihydro-1H-inden-5-yl]oxy}-2,3-dihydro-1H-indene-1,3-dione], the inhibition at 1 µM stood at 19%, the inhibition at 3 µM came to 36% and the IC50 came out at 3 µM.

On to `O=C(c1ccc2c(c1)C(=O)C(C(=O)Nc1cc(Cl)nc(Cl)c1)C2=O)c1ccc2c(c1)C(=O)C(C(=O)Nc1cc(Cl)nc(Cl)c1)C2=O` (centres unmarked) [Example 17, 5,5′-carbonylbis(1,3-dioxo-indan-2-carboxylic acid (2,6-dichloro-pyridin-4-yl)-amide)], for which the IC50 was 1.08 µM.

Consider `O=C(O)CNC(=O)C1C(=O)c2ccc(C(=O)c3ccc4c(c3)C(=O)C(C(=O)NCC(=O)O)C4=O)cc2C1=O` (centres unmarked) [Example 309, 2-[(5-{2-[(carboxymethyl)carbamoyl]-1,3-dioxo-2,3-dihydro-1H-indene-5-carbonyl}-1,3-dioxo-2,3-dihydro-1H-inden-2-yl)formamido]acetic acid], for which the inhibition at 1 µM worked out at 20% and the inhibition at 3 µM amounted to 32%.

As for `CCCCNC(=O)C1C(=O)c2ccc(C(=O)c3ccc4c(c3)C(=O)C(C(=O)NCCCC)C4=O)cc2C1=O` (centres unmarked) [Example 77, N-butyl-5-[2-(butylcarbamoyl)-1,3-dioxo-2,3-dihydro-1H-indene-5-carbonyl]-1,3-dioxo-2,3-dihydro-1H-indene-2-carboxamide], the IC50 was found to be 2.3 µM.

In the case of `O=C(NC1CCS(=O)(=O)C1)C1C(=O)c2ccc(S(=O)(=O)c3ccc4c(c3)C(=O)C(C(=O)NC3CCS(=O)(=O)C3)C4=O)cc2C1=O` (centres unmarked) [Example 360, N-(1,1-dioxo-1λ^6-thiolan-3-yl)-5-({2-[(1,1-dioxo-1λ^6-thiolan-3-yl)carbamoyl]-1,3-dioxo-2,3-dihydro-1H-inden-5-yl}sulfonyl)-1,3-dioxo-2,3-dihydro-1H-indene-2-carboxamide], the inhibition at 1 µM is 23% and the inhibition at 3 µM came out at 59%.

Regarding `CSCCCC(=O)C1C(=O)c2ccc(Oc3ccc4c(c3)C(=O)C(C(=O)CCCSC)C4=O)cc2C1=O` (centres unmarked) [Example 283, 2-[4-(methylsulfanyl)butanoyl]-5-({2-[4-(methylsulfanyl)butanoyl]-1,3-dioxo-2,3-dihydro-1H-inden-5-yl}oxy)-2,3-dihydro-1H-indene-1,3-dione], the inhibition at 10 µM is 86% and the IC50 amounted to 10 µM.

Take `C[C@H](NC(=O)C1C(=O)c2ccc(Oc3ccc4c(c3)C(=O)C(C(=O)N[C@@H](C)C(=O)O)C4=O)cc2C1=O)C(=O)O` (stereo partly drawn) [Example 313, (2S)-2-({5-[(2-{[(1S)-1-carboxyethyl]carbamoyl}-1,3-dioxo-2,3-dihydro-1H-inden-5-yl)oxy]-1,3-dioxo-2,3-dihydro-1H-inden-2-yl}formamido) propanoic acid]: the inhibition at 1 µM was 31% and the inhibition at 3 µM was found to be 67%.

For `COC(=O)C(C)(C)CC(=O)C1C(=O)c2ccc(C(=O)c3ccc4c(c3)C(=O)C(C(=O)CC(C)(C)C(=O)OC)C4=O)cc2C1=O` (centres unmarked) [Example 219], the inhibition at 5 µM was 68%, the inhibition at 10 µM was determined as 91% and the IC50 is 5 µM.

As to `COCCOCCNC(=O)C1C(=O)c2ccc(C(=O)c3ccc4c(c3)C(=O)C(C(=O)NCCOCCOC)C4=O)cc2C1=O` (centres unmarked) [Example 66, 5,5′-carbonylbis(n-(2-(2-methoxyethoxy)ethyl)-1,3-dioxo-2,3-dihydro-1h-indene-2-carboxamide)], the inhibition at 5 µM was found to be 48% and the inhibition at 10 µM was found to be 86%.

Regarding `COc1ccccc1NC(=O)C1C(=O)c2ccc(S(=O)(=O)c3ccc4c(c3)C(=O)C(C(=O)Nc3ccccc3OC)C4=O)cc2C1=O` (centres unmarked) [Example 69, 5,5′-sulfonylbis(n-(2-methoxyphenyl)-1,3-dioxo-2,3-dihydro-1h-indene-2-carboxamide)], the inhibition at 5 µM turned out to be 60%, the inhibition at 10 µM was 85% and the IC50 is 1.05 µM.

Take `COc1ccc(NC(=O)C2C(=O)c3ccc(C(=O)c4ccc5c(c4)C(=O)C(C(=O)Nc4ccc(OC)cc4OC)C5=O)cc3C2=O)c(OC)c1` (centres unmarked) [Example 96, N-(2,4-dimethoxyphenyl)-5-{2-[(2,4-dimethoxyphenyl)carbamoyl]-1,3-dioxo-2,3-dihydro-1H-indene-5-carbonyl}-1,3-dioxo-2,3-dihydro-1H-indene-2-carboxamide]: the inhibition at 5 µM stood at 36% and the inhibition at 10 µM amounted to 70%.

Turning to `CC(=O)NCCCC(=O)C1C(=O)c2ccc(C(=O)c3ccc4c(c3)C(=O)C(C(=O)CCCNC(C)=O)C4=O)cc2C1=O` (centres unmarked) [Example 269, N-(4-{5-[2-(4-acetamidobutanoyl)-1,3-dioxo-2,3-dihydro-1H-indene-5-carbonyl]-1,3-dioxo-2,3-dihydro-1H-inden-2-yl}-4-oxobutyl)acetamide], the inhibition at 1 µM came to 14% and the inhibition at 3 µM is 50%.

For the molecule `CC(C)(C)OC(=O)NCC(=O)C1C(=O)c2ccc(C(=O)c3ccc4c(c3)C(=O)C(C(=O)CNC(=O)OC(C)(C)C)C4=O)cc2C1=O` (centres unmarked) [Example 173, tert-butyl N-(2-{5-[2-(2-{[(tert-butoxy)carbonyl]amino}acetyl)-1,3-dioxo-2,3-dihydro-1H-indene-5-carbonyl]-1,3-dioxo-2,3-dihydro-1H-inden-2-yl}-2-oxoethyl) carbamate], the inhibition at 5 µM worked out at 87%, the inhibition at 10 µM is 97% and the IC50 worked out at 2.2 µM.

`O=C(c1ccc2c(c1)C(=O)C(C(=O)C1CCCCC1)C2=O)c1ccc2c(c1)C(=O)C(C(=O)C1CCCCC1)C2=O` (centres unmarked) [Example 287, 2-cyclohexanecarbonyl-5-(2-cyclohexanecarbonyl-1,3-dioxo-2,3-dihydro-1H-indene-5-carbonyl)-2,3-dihydro-1H-indene-1,3-dione]: the inhibition at 1 µM is 5%, the inhibition at 3 µM turned out to be 31% and the IC50 was determined as 3 µM.

For the molecule `O=C(c1ccc2c(c1)C(=O)C(C(=O)NCC1CCS(=O)(=O)C1)C2=O)c1ccc2c(c1)C(=O)C(C(=O)NCC1CCS(=O)(=O)C1)C2=O` (centres unmarked) [Example 359, N-[(1,1-dioxo-1λ^6-thiolan-3-yl)methyl]-5-(2-{[(1,1-dioxo-1λ^6-thiolan-3-yl)methyl]carbamoyl}-1,3-dioxo-2,3-dihydro-1H-indene-5-carbonyl)-1,3-dioxo-2,3-dihydro-1H-indene-2-carboxamide], the inhibition at 1 µM worked out at 34% and the inhibition at 3 µM was found to be 45%.
